Measured values reported in ChEMBL document CHEMBL1141791, “A cytotoxic sesquiterpene alkaloid from the South China Sea gorgonian Subergorgia suberosa” (J Nat Prod, 2005).
In brackets after ≈: the same amount, converted by molar mass.

Test system: MDA-MB-231
Experiment: Cytotoxicity against human MDA-MB-231 cells by MTT method
Format: functional, cell-based

Structure (SMILES): C[C@H]1CC[C@H]2[C@H]3CC(=O)[C@H](Cn4c(O)nc5c(O)ncnc54)[C@]31CC2(C)C
- IC50: 8.87 µg/mL (≈ 23.9 µM)
